Columns and labels:
Type in all cases: cell-based
[1] = target: T1, Kv1.1/Kv1.1-E283K/Kv1.2 channels (Homo sapiens, UniProt Q09470, E283K); test: TEVC of oocytes co-injected 1:1:2 Kv1.1:Kv1.1-E283K:Kv1.2 cRNA; conditions: even at 0.1 µM
T1 construct: expressed in transfected cells; host or cells: Xenopus laevis oocytes co-injected 1:1:2 Kv1.1:Kv1.1-E283K:Kv1.2 cRNA
Excerpt: (§1) Kv1.1 α subunits form heteromeric tetramers with other Kv1 subfamily α subunits, including Kv1.2, in the […] region of axons and some terminals, in the hippocampus (perforant input from entorhinal cortex, mossy fiber projections from granule cells to CA3, and CA3 axon collaterals)[7]–[11]. We therefore tested effects of gallic acid on Kv1.1/Kv1.2 heteromers generated in oocytes by co-injection of 1:1:2 parts Kv1.1:Kv1.1-E283K:Kv1.2 or Kv1.1:Kv1.1-L155P:Kv1.2 cRNA to approximate the Kv1.1/Kv1.2 heteromeric channel composition in EA1 patients heterozygous for either mutant KCNA1 allele. […]
(§2) We performed TEVC at room temperature using an OC-725C amplifier (Warner Instruments, Hamden, CT) and pClamp10 software (Molecular Devices, Sunnyvale, CA) 2 days after cRNA injection as described in the section above. […] We recorded currents in response to voltage pulses between −80 mV and +40 mV at 10 or 20 mV intervals from a holding potential of −80 mV, to yield current-voltage relationships and examine activation kinetics. To calculate the voltage dependence of activation (V0.5), tail currents were recorded at a voltage pulse of −50 mV immediately following prepulse voltages between −80 mV and +40 mV. We analyzed data using Clampfit (Molecular Devices) and Graphpad Prism software (GraphPad, San Diego, CA, USA), stating values as mean ± SEM. […]

[2] = target: T2, Kv1.1-I182S, E192I, K195N (Kv1.1–3 M) (Homo sapiens, UniProt Q09470, E191I/I183S/K196N); test: TEVC of oocytes expressing Kv1.1-3M
T2 construct: expressed in transfected cells; host or cells: Xenopus laevis oocytes
Excerpt: The functional data support a Kv1.1 gallic acid-binding site similar to that predicted by the MD simulation (Fig. 10f; Supplementary Movie 1).
Wild-type and mutant Kv1 cDNAs were generated (Genscript, Piscataway, NJ) in the pTLNx expression vector. As previously described, we generated cRNA transcripts encoding human Kv1.1 (wild-type and mutant) and Kv1.2, by in vitro transcription using the mMessage mMachine kit (Thermo Fisher Scientific), after vector linearization, from cDNA sub-cloned into plasmids (pTLNx) incorporating Xenopus laevis β-globin 5’ and 3’ UTRs flanking the coding region to enhance translation and cRNA stability. We injected defolliculated stage V and VI Xenopus laevis oocytes (Xenoocyte, Dexter, MI, US) with Kv1 cRNAs (1–5 ng). We incubated the oocytes at 16 °C in ND96 oocyte storage solution containing penicillin and streptomycin, with daily washing, for 2 days prior to two-electrode voltage-clamp (TEVC) recording.
as §2, with “above. For recording, oocytes we placed in a small-volume oocyte bath (Warner) and viewed with a dissection microscope. We sourced chemicals from Sigma. We studied effects of plant extracts and of compounds, solubilized directly in bath solution (in mM): 96 NaCl, 4 KCl, 1 MgCl2, 1 CaCl2, 10 HEPES (pH 7.6).” for “above.”

[3] = target: T3, Kv1.1/Kv1.1-L155P/Kv1.2 channels (Homo sapiens, UniProt Q09470, L155P); test: TEVC of oocytes co-injected 1:1:2 Kv1.1:Kv1.1-L155P:Kv1.2 cRNA; conditions: at 0.1 µM and higher
T3 construct: expressed in transfected cells; host or cells: Xenopus laevis oocytes co-injected 1:1:2 Kv1.1:Kv1.1-L155P:Kv1.2 cRNA
Excerpt: as §1, §2

T2 sequence (Q09470 whole entry I183S/E191I/K196N): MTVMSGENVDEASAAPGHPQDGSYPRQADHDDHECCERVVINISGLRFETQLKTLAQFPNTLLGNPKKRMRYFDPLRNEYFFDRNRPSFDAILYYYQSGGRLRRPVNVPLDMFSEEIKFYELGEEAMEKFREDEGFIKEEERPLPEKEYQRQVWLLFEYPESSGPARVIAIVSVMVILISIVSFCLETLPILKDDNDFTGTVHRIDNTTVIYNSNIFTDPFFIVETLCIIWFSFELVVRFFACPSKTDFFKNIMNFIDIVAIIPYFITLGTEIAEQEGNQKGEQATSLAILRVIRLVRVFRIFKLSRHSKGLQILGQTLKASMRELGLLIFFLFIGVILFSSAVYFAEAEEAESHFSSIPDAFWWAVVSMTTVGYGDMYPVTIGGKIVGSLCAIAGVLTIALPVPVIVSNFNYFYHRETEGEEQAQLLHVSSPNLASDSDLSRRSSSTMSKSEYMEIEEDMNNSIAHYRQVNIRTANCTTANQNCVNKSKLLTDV
T1 sequence (Q09470 whole entry, stated change not applied): as the sequence (Q09470 whole entry I183S/E191I/K196N) above, with S183I, I191E, N196K counted along it
T1 sequence (Q09470 whole entry E283K): as the sequence (Q09470 whole entry I183S/E191I/K196N) above, with S183I, I191E, N196K, E283K counted along it
T1 sequence (P16389 whole entry partner): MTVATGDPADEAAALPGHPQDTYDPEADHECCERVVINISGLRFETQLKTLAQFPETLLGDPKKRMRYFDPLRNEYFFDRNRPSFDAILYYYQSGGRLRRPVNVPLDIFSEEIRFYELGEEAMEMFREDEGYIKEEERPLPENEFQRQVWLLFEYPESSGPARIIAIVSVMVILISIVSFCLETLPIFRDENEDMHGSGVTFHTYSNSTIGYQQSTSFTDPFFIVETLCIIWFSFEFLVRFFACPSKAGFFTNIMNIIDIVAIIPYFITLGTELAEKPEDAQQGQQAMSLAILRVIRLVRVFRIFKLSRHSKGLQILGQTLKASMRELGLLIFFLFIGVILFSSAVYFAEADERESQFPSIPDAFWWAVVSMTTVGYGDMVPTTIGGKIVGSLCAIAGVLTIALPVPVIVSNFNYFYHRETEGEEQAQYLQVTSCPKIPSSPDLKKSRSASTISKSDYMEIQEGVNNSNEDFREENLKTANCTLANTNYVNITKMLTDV
T3 sequence (Q09470 whole entry, stated change not applied): as the sequence (Q09470 whole entry I183S/E191I/K196N) above, with S183I, I191E, N196K counted along it
T3 sequence (Q09470 whole entry L155P): as the sequence (Q09470 whole entry I183S/E191I/K196N) above, with L155P, S183I, I191E, N196K counted along it
T3 sequence (P16389 whole entry partner): as the sequence (P16389 whole entry partner) above

## O=C(O)c1cc(O)c(O)c(O)c1 [gallic acid]
[1]
  rescue of channel activity: highly effective at rescuing
[2]
  EC50: 345 ± 38 nM
[2]; at −40 mV
  EC50 for peak current augmentation: not measurable
  maximal peak current augmentation compared to Kv1.1: reduced fivefold
[3]
  rescue of channel activity: highly effective at rescuing

Source: paper PMC10244465, “Native American ataxia medicines rescue ataxia-linked mutant potassium channel activity via binding to the voltage sensing domain” (Nature Communications, 2023)
